In ChEMBL document CHEMBL4808203, “Angiokinase inhibition of VEGFR-2, PDGFR and FGFR and cell growth inhibition in lung cancer: Design, synthesis, biological evaluation and molecular docking of novel azaheterocyclic coumarin derivatives” (Bioorg Med Chem Lett, 2021):

Columns and labels:
[1] = system: A549; test: Cytotoxicity against human A549 cells assessed as cell viability measured by MTT assay; assay type: functional, cell-based
[2] = system: WI-38; test: Cytotoxicity against human WI-38 cells assessed as cell viability measured by MTT assay; assay type: ADME, cell-based
[3] = system: A549; test: Cell cycle arrest in human A549 cells assessed as accumulation at pre-G1 phase measured after 24 hrs (reference value: 3.83%); assay type: functional
[4] = system: A549; test: Cell cycle arrest in human A549 cells assessed as accumulation at G2/M phase measured after 24 hrs (reference value: 28.28%); assay type: functional
[5] = molecular target: Epidermal growth factor receptor (Homo sapiens, UniProt P00533); test: Inhibition of EGFR (unknown origin)
Sequence of Epidermal growth factor receptor (P00533 whole entry): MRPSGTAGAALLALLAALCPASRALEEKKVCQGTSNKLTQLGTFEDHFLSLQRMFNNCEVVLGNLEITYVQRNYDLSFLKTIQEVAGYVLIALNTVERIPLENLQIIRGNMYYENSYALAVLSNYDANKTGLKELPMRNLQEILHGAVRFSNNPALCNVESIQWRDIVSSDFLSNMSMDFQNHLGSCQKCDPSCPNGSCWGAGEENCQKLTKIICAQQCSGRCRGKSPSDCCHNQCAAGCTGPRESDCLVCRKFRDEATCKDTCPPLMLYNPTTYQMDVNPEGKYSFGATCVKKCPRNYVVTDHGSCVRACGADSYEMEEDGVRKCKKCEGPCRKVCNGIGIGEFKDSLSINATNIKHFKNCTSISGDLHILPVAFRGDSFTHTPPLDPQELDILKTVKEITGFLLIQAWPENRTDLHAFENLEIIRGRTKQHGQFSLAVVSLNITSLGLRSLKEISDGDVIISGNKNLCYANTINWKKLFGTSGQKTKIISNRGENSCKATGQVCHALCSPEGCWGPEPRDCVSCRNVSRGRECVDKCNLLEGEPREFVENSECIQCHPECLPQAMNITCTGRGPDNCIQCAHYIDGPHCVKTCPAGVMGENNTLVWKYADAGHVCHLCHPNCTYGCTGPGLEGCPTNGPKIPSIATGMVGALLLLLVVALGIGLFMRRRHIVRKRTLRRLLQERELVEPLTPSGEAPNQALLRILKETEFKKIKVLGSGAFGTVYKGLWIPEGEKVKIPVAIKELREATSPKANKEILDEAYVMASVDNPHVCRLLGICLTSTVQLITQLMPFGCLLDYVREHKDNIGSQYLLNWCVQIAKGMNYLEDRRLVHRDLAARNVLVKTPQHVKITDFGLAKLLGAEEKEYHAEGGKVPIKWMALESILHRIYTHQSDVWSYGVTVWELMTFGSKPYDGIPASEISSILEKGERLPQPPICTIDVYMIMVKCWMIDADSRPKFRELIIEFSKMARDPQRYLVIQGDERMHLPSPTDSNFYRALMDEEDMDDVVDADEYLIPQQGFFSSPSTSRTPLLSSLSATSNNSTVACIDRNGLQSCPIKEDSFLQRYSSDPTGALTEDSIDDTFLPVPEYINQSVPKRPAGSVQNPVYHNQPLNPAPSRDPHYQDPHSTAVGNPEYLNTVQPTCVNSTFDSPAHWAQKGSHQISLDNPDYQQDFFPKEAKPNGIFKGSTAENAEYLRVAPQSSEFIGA

[6] = system: A549; test: Cell cycle arrest in human A549 cells assessed as accumulation at […] phase measured after 24 hrs (reference value: 42.28%); assay type: functional
[7] = system: A549; test: Cell cycle arrest in human A549 cells assessed as accumulation at S phase measured after 24 hrs (reference value: 36.58%); assay type: functional
[8] = system: A549; test: Induction of apoptosis in human A549 cells assessed as early apoptotic cells measured after 24 hrs by Annexin-V-FITC/propidium iodide staining based assay (reference value: 0.39%); assay type: functional
[9] = molecular target: Fibroblast growth factor receptor (Homo sapiens, UniProt P22607+P11362+P22455+P21802); test: Inhibition of FGFR (unknown origin); assay type: protein assay
[10] = system: A549; test: Induction of apoptosis in human A549 cells assessed as necrotic cells measured after 24 hrs by Annexin-V-FITC/propidium iodide staining based assay (reference value: 1.29%); assay type: functional
[11] = molecular target: Platelet-derived growth factor receptor beta (Homo sapiens, UniProt P09619); test: Inhibition of PDGFRbeta (unknown origin)
Sequence of Platelet-derived growth factor receptor beta (P09619 whole entry): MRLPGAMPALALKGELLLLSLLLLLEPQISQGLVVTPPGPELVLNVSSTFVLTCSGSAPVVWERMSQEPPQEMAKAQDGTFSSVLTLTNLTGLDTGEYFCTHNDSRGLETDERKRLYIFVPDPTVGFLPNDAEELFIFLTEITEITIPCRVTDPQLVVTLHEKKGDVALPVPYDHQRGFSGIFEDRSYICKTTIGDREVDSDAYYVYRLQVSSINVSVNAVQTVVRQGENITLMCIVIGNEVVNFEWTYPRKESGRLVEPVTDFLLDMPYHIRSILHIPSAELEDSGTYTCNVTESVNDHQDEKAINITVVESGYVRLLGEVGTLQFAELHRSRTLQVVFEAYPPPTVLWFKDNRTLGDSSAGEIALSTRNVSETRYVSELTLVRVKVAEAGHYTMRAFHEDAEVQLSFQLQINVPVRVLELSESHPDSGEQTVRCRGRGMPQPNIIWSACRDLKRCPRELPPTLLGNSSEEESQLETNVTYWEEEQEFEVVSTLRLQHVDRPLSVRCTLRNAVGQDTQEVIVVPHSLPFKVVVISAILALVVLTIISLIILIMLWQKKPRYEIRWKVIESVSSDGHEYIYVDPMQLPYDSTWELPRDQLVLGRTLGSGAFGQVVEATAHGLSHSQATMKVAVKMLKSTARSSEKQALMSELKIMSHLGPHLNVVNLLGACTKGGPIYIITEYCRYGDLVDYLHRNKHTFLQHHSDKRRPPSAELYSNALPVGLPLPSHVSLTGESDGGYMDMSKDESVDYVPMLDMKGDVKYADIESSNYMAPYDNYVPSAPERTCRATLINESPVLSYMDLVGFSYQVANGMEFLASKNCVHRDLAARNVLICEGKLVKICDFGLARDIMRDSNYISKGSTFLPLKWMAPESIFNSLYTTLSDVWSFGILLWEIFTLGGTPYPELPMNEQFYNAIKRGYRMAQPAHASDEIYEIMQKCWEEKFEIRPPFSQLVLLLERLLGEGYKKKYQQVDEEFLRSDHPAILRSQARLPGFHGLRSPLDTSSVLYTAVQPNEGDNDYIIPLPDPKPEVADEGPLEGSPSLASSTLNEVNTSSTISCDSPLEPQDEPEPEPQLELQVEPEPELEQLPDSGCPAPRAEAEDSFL

[12] = molecular target: Vascular endothelial growth factor receptor 2 (Homo sapiens, UniProt P35968); test: Inhibition of VEGFR2 (unknown origin)
Sequence of Vascular endothelial growth factor receptor 2 (P35968 whole entry): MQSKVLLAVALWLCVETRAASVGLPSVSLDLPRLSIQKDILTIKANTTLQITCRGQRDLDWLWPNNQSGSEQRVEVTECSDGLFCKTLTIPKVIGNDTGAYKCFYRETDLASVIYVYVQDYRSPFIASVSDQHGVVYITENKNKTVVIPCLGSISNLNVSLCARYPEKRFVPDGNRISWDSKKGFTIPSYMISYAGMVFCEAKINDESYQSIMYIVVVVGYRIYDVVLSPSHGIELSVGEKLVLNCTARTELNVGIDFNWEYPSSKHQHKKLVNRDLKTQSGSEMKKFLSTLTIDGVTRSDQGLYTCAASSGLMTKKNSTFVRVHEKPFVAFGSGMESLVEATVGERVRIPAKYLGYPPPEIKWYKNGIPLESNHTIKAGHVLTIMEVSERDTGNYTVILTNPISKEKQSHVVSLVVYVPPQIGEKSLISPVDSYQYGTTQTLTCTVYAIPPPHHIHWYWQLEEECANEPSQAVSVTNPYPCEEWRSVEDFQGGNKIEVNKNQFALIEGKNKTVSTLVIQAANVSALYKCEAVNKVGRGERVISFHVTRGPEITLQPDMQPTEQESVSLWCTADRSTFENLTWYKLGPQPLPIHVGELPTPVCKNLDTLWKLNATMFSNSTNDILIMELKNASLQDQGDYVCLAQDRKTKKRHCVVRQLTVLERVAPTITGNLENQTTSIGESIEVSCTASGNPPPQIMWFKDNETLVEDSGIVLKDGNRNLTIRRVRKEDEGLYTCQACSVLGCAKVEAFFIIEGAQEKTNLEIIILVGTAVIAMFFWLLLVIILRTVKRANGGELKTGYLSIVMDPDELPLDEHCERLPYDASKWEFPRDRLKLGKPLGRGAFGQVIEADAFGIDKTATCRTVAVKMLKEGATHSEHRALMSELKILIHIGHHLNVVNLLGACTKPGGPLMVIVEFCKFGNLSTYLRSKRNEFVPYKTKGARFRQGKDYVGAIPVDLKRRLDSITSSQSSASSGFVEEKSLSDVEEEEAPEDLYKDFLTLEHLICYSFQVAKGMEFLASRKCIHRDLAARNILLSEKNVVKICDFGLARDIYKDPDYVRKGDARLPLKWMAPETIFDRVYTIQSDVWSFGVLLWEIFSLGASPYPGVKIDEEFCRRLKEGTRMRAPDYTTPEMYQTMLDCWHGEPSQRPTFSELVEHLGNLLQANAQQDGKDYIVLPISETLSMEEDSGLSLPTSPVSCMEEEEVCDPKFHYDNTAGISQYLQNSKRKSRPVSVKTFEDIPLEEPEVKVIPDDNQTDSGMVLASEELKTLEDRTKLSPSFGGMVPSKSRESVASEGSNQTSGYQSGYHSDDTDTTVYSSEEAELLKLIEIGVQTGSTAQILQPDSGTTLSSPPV

[13] = system: A549; test: Induction of apoptosis in human A549 cells assessed as late apoptotic cells measured after 24 hrs by Annexin-V-FITC/propidium iodide staining based assay (reference value: 0.15%); assay type: functional

Row | Compound | IC50 [1] [µM] | also measured
1 | COc1ccc(-c2cc(-c3c(O)c4ccccc4oc3=O)nc(N)c2C#N)cc1OC | 7.38 | –
2 | N#Cc1c(-c2ccc(F)cc2)cc(-c2c(O)c3ccccc3oc2=O)nc1N | 22.3 | –
3 | COc1cc(-c2cc(-c3c(O)c4ccccc4oc3=O)nc(S)n2)ccc1O | 36.1 | –
4 | O=c1oc2ccccc2c(O)c1-c1cc(-c2ccc(F)cc2)nc(S)n1 | 21.1 | –
5 | O=c1oc2ccccc2c(O)c1-c1cc(-c2c(F)cccc2Cl)nc(O)n1 | 5.1 | –
6 | N#Cc1c(-c2c(F)cccc2Cl)cc(-c2c(O)c3ccccc3oc2=O)nc1N | 46.3 | –
7 | O=c1oc2ccccc2c(O)c1C1=NNC(c2c(F)cccc2Cl)C1 (stereo not given) | 23.5 | –
8 | O=c1oc2ccccc2c(O)c1-c1cc(-c2c(F)cccc2Cl)nc(S)n1 | 3.98 | IC50 [2]: 30.5 µM
9 | O=c1oc2ccccc2c(O)c1-c1cc(-c2ccc(F)cc2)nc(O)n1 | 2.39 | IC50 [2]: 37.8 µM
10 | O=c1oc2ccccc2c(O)c1C1=NNC(c2ccc(F)cc2)C1 (stereo not given) | 1.05 | IC50 [2]: 19.9 µM
11 | COc1cccc(-c2cc(-c3c(O)c4ccccc4oc3=O)nc(O)n2)c1 | 5.55 | –
12 | COc1cccc(-c2cc(-c3c(O)c4ccccc4oc3=O)nc(S)n2)c1 | 10.2 | –
13 | COc1ccc(C2CC(c3c(O)c4ccccc4oc3=O)=NN2)cc1OC (stereo not given) | 7.58 | –
14 | COc1ccc(-c2cc(-c3c(O)c4ccccc4oc3=O)nc(O)n2)cc1OC | 21.7 | –
15 | COc1cc(-c2cc(-c3c(O)c4ccccc4oc3=O)nc(N)c2C#N)ccc1O | 38.5 | –
16 | COc1cc(-c2cc(-c3c(O)c4ccccc4oc3=O)nc(O)n2)ccc1O | 138 | –
17 | COc1cc(C2CC(c3c(O)c4ccccc4oc3=O)=NN2)ccc1O (stereo not given) | 8.4 | –
18 | COc1cccc(-c2cc(-c3c(O)c4ccccc4oc3=O)nc(N)c2C#N)c1 | 2.38 | Activity [3]: 42.14%; Activity [4]: 11.32%; IC50 [5]: 0.033 µM; Activity [6]: 38.55%; Activity [7]: 58.89%; Activity [8]: 4.67%; IC50 [2]: 53.8 µM; IC50 [9]: 0.021 µM; Activity [10]: 17.12%; IC50 [11]: 0.02 µM; IC50 [12]: 0.042 µM; Activity [13]: 22.37%
19 | COc1ccc(-c2cc(-c3c(O)c4ccccc4oc3=O)nc(S)n2)cc1OC | 62.6 | –
20 | COc1cccc(C2CC(c3c(O)c4ccccc4oc3=O)=NN2)c1 (stereo not given) | 5.91 | –
